We go through three compounds from patent US10874686B2, “Anthranilyl-adenosinemonosulfamate analogs and uses thereof” (Memorial Sloan-Kettering Cancer Center, priority 2015, dated 2020).

Experiment [1] concerns the target PqsA (Pseudomonas aeruginosa, UniProt Q9I4X3). The settings on record: previous biochemical studies; read-out: Km as PqsA substrate; cited from earlier work.
In experiment [2] the target is P. aeruginosa PqsA (Pseudomonas aeruginosa, UniProt Q9I4X3). Put plainly: PqsA inhibition, spectrophotometric assay with recombinant PqsA (anthranilyl-CoA formation at 365 nm). In kind it is biochemical. The settings on record: short time scale of the assay. As for the experimental part: PqsA inhibitors were evaluated using a quantitative spectrophotometric assay with recombinant PqsA, detecting formation of anthranilyl-CoA at 365 nm. See, e.g., Coleman et al. (2008) J. Bacteriol. 190, 1247. […] See, e.g., Morrison et al. Biochim. Biophys. Acta, Enzymol. 185, 269-286; Williams et al. (1979) Methods Enzymol. 63, 437. […] See, e.g., Qiao et al. (2007) J. Am. Chem. Soc. 129, 6350.
Reactions were performed at 37° C. in a 0.5 mL volume in a Varian Cary 100 UV-visible spectrophotometer with Cary WinUV software. Reaction mixtures contained 100 mM HEPES, pH 8.0, 0.2 mM dithiothreitol, 2 mM MgCl2, ˜3.3 μg PqsA protein (˜60 nM final), and depending on which substrate varied, 1 mM ATP (disodium salt), 0.5 mM coenzyme A (tri-lithium salt), 0.5 mM sodium anthranilate, and inhibitor (usually as a DMSO stock solution). Reactions were blanked and preincubated with all components except anthranilate at 37° C. for 1 min, then initiated by addition of anthranilate. Formation of anthraniloyl-CoA was monitored ance at 365 nm (ε=5.5 mM−1 cm−1) for 1 min. Data were analyzed using GraphPad Prism 6 software.

Experiment [3] deals with HHQ and PQS quinolone production in P. aeruginosa strain PA14. Put plainly: Inhibition of HHQ and PQS quinolone production in P. aeruginosa strain PA14 (LC-MS/MS). In kind it is cell-based, Pseudomonas aeruginosa. The settings on record: 1.5 mM, HHQ 8 h, PQS 20 h. As for the experimental part: The production of PQS and HHQ by strain PA14 was performed in triplicate in 14-mL round bottom falcon tubes containing 3-mL cultures in LB medium. Tubes were incubated at 37° C. in an orbital shaker at 225 rpm. Cultures were inoculated with 15-hour culture in LB in order to obtain a starting OD600=0.05, with or without inhibitors added. For PQS and HHQ analysis, a 20 μl aliquot was taken at time points as indicated. Each sample was diluted with 180 μL of methanol containing the internal standard (100 μM of d^4-PQS or d^4-HHQ) and 2% acetic acid. The solution was then vertexed and centrifuged at 13,000 g for 5 minutes, and the supernatant was transferred to a 96-well plates for LC-MS/MS analysis. Bacterial growth was measured by recording OD600 at 20 h to provide the data in FIG. 7A.
Liquid chromatography tandem mass spectrometry (LC-MS/MS) was carried out on an Agilent Technologies 6410 triple quad LC-MS/MS system with autosampler in electrospray ionization (ESI) mode, with an Agilent Zorbax Eclipse XDB-C18 reverse phase column (50×4.6 mm, 5 μm) using a flow rate of 0.5 mL/minute and an isocratic mobile phase of 60% CH3CN in 0.1% aqueous formic acid over 5 minutes. Positive electrospray in MRM mode was employed to quantify PQS and HHQ, using the ion transitions HHQ 244 to 159, d^4-HHQ 248 to 163, PQS 260 to 175, and d^4-PQS 264 to 179; shown in Table E3.
PqsA inhibitors 1-5 were evaluated for their ability to inhibit HHQ and PQS quinolone production in P. aeruginosa strain PA14 (FIG. 6). HHQ and PQS concentrations were determined by LC-MS/MS quantitation relative to deuterated internal standards. 6-Fluoroanthranilate (6FABA), a substrate analogue reported previously to inhibit quinolone production at millimolar concentrations, was used as a positive control. Compounds were initially tested at 1.5 mM concentration, and HHQ and PQS were quantified at 8 and 20 hours, respectively. These time points were selected based on an initial time course study of quinolone production in the absence of inhibitors, with HHQ or PQS production peaking at these respective time points. […] This could be due to differences in cell penetration, stability, and/or target specificity. Finally, because inhibitors of the quinolone quorum sensing pathway should not impact bacterial growth, we confirmed that none of the six inhibitors above inhibited growth over 20 h (FIG. 7A). Encouraged by the ability of anthranilyl-AMS (1) and anthranilyl-AMSN (2) to inhibit HHQ and PQS quinolone production, the activity of these two inhibitors and 6FABA were investigated in greater detail. In untreated controls, HHQ and PQS production peaked at 8 and 20 hours, respectively. Previously reported time course studies have similarly shown that HHQ levels peak at 6-8 hours while PQS levels continue to rise. See, e.g., Deziel et al. (2004) Proc. Natl. Acad. Sci. U.S.A 101, 1339; Kesarwani et al. (2011) PLoS Pathog. 7, e1002192. All three inhibitors were able to decrease quinolone production in a dose- and time-dependent manner (FIG. 2A). […] Such a perturbation might still be sufficient to impact P. aeruginosa virulence in vivo. […] See, e.g., Lesic et al. (2007) PLoS Pathog. 3, e126.

For the compound `Nc1ccccc1C(=O)O` [anthranilate], the Michaelis-Menten constant (Km) in experiment [1] is 8 µM.

Take `O=C(O)c1ccccc1` [benzoate]: the Km in experiment [1] is 150 µM.

Regarding `Nc1ncnc2c1ncn2[C@@H]1O[C@H](CNS(=O)(=O)NC(=O)c2ccccc2O)[C@@H](O)[C@H]1O` [salicyl-AMSN, Salicyl-AMSN, reference compound], the “PqsA inhibition, potency in words” value in experiment [2] was “potency similar to that of the cognate anthranilyl inhibitors”. The “inhibition of quinolone production, in words” value in experiment [3] is “less potent inhibitors of quinolone production”.

In general, Km refers to the concentration of substrate that gives half-maximal velocity.
